Experimental data taken from US20050037983A1, “Compositions and methods for the treatment of depression and other affective disorders” (priority 2003, published 2005).
Like-named read-outs stand apart in the source and are kept apart here.

Columns and labels:
[1] = system: subject with major depression; test: Case reports: add-on anti-inflammatory in subjects with major depression, rated on 17 item Hamilton rating scale for depression (HAMD); assay type: in vivo, human; conditions: person
Protocol: A subject with a 4-5 month history of depression was used in this example. The subject's complaints included low mood, anhedonia, anxiety, poor concentration, significant initial insomnia, mild anorexia and weight loss of approximately 2 kilos. Symptoms were precipitated by problems both in the work and home environment. A diagnosis of major depression was made.
Over three weeks this was increased to 300 mg daily.
Rofecoxib 50 mg daily was added to the venlafaxine.
A subject with a long history of recurring depression was used in this example. The current episode was present for 3 months when initially seen. They were low in mood, tearful, irritable, very anxious and had significant sleep disturbance in the form of initial and delayed insomnia. There was no clear precipitant for their symptoms.
They had been taking venlafaxine for approximately 1 year at a maximum tolerated dose of 225 mg daily.

IL-6 = conditions: in vitro; cited from earlier work
[2] = system: subjects treated with IFN-α; conditions: cited from earlier work; for IL-6 level compared with placebo: as early as four hours after a single dose
neutrophils = conditions: cited from earlier work
[3] = system: subjects with DSM-IV major depression; test: Human study: 36 subjects with DSM-IV major depression, three randomised groups, response rates; assay type: in vivo; conditions: Hamilton score greater than 20 at entry; Vioxx 30 mg/day; compared among three groups incl. placebo
Protocol: Thirty six (36) subjects with DSM-IV major depression and Hamilton score greater than 20 were recruited. Subjects were randomly allocated into each of three groups • 1. SSRI plus Vioxx 30 mg/day • 2. Vioxx, 30 mg/day • 3. Placebo All subjects have base line Il-6, IL-1 and cortisol levels assayed using specific assays. Biochemical assays are repeated at the end of weeks 1, 3 and 6. […] Response to treatment was associated with a drop in cortisol levels and pro-inflammatory cytokines.

cyclooxygenase = conditions: cited from earlier work
[4] = in vivo; cited from earlier work
[5] = subjects treated with interferon alpha

Compound: COc1ccc(C(CN(C)C)C2(O)CCCCC2)cc1 (stereo not drawn) [venlafaxine]
- clinical improvement ([1]; venlafaxine 300 mg daily alone, after 4 weeks on this dose): No clinical improvement

Compound: CC(C)Cc1ccc([C@@H](C)C(=O)O)cc1 [ibuprofen, R-ibuprofen]
- potency of R-enantiomer versus S-enantiomer in down-regulating IL-6 levels (IL-6): significantly more potent

Compound: CC(C)Cc1ccc(C(C)C(=O)O)cc1 (stereo not drawn) [Ibruprofen]
- HAMD ([1]; baseline HAMD 20, 400 mg three times daily added to venlafaxine 225 mg daily, day 14): 8
- day of reported symptomatic improvement ([1]; 400 mg three times daily added to venlafaxine): ≤ 8 days

Compound: Fc1ccc([C@@H]2CCNC[C@H]2COc2ccc3c(c2)OCO3)cc1 [paroxetine]
- impact in preventing depression [2, 5]: modest impact

Compound: O=C(O)c1cc(/N=N/c2ccc(S(=O)(=O)Nc3ccccn3)cc2)ccc1O [sulfasalazine]
- induction of apoptosis in neutrophils (neutrophils): capable of inducing apoptosis

Compound: CS(=O)(=O)c1ccc(C2=C(c3ccccc3)C(=O)OC2)cc1 [Rofecoxib]
- HAMD score ([1]; baseline HAMD 22, Rofecoxib 50 mg daily added to venlafaxine 300 mg daily, after 1 week): 11
- time to improvement after commencing treatment ([1]; Rofecoxib 50 mg daily added to venlafaxine, subject's description): ≤ 5 days
- clinical state at review ([1]; Rofecoxib added to venlafaxine, reviewed 2 weeks later): sustained
- response rates [3]: greater than that observed for placebo

Compound: C[C@@H](C(=O)O)c1cccc(C(=O)c2ccccc2)c1 [ketoprofen, R-ketoprofen]
- potency of R-enantiomer versus S-enantiomer in down-regulating IL-6 levels (IL-6): significantly more potent

Compound: IFN-α
- IL-6 level compared with placebo [2]: significantly increased
- IL-6 level compared with placebo ([2]; listed as IFN-alpha): significantly increases
- subjects in whom major depression is reported [2, 5]: up to 40%

Compound: CN(C)CCCC1(c2ccc(F)cc2)OCc2cc(C#N)ccc21 (stereo not drawn) [citalopram]
- clinical response ([1]; citalopram 20 mg daily alone, after 5 weeks): no response

Compound: C[C@@H](C(=O)O)c1ccc(-c2ccccc2)c(F)c1 [R-flurbiprofen]
- inhibition of cyclooxygenase activity (cyclooxygenase): does not inhibit cyclooxygenase activity
- gastrointestinal mucosal damage [4]: does not cause gastrointestinal mucosal damage
- potency of R-enantiomer versus S-enantiomer in down-regulating IL-6 levels (IL-6): significantly more potent
